Key:
[1] = system: Rhizopus stolonifer; assay: B.4 Protective action against Rhizopus stolonifer on rye bread (Pumpernickel); conditions: Pumpernickel slices; mixtures 1:50 diluted with water, sorbic acid 0.1% solution; after one week of incubation
Procedure: B.4 Protective Action Against Rhizopus stolonifer on Rye Bread (“Pumpernickel”)
Sterile slices of Pumpernickel were each sprayed with water (control), a 0.1% sorbic acid solution (a standard preservative) or the mixture of example 1 or of example 8 (1:50 diluted with water). For inoculation with the fungus, small disks of blotting paper were soaked with a spore suspension of Rhizopus stolonifer and placed onto the center of Pumpernickel slices. After one week of incubation, the degree of fungus formation was examined.

[2] = system: powdery mildew; conditions: dogwood plants; untreated control 30%; from U.S. Pat. Nos. 5,736,164 and 5,800,837; cited from earlier work
[3] = system: Plasmopara viticola; assay: B.5.2 Curative treatment against Plasmopara viticola in grapevines; assay type: in vivo; conditions: without second inoculation, half-leaf, example 12 diluted 1:100, examples 13/14 1:200, 5 days after inoculation
Procedure: (§1) Potted grapevines were inoculated with Plasmopara viticola both before foliar treatment with the active agent and after washing the active agent coating off the leaves in order to test the effect of the residual depot of actives. To ensure a good comparability of the results and avoid or at least strongly minimize falsification of the effects, e.g. due to the use of leaves of different physiological age or of different expositions, a half-leaf treatment was carried out: In each case only one half of a leaf was treated, while the other half remained untreated and served as a control and reference for determining efficacy; the two halves being separated by the middle leaf vein. For this purpose a precision sprayer was used for applying the active compounds on the one leaf half, while the half which was to stay untreated was covered with a blotting paper during spraying. […]
(§2) The experiment was carried out in analogy to B.5.1, however without the second inoculation. 5 days after the inoculation the plants were placed for 12 h into a humid chamber and then the extent of infection was determined visually and the efficacy W was calculated from the infected leave surface according to Abbot's formula. The expected efficacies for active compound combinations (i.e. secondary magnesium and calcium phosphonate) were determined using Colby's formula.

[4] = system: Sphaerotheca fuliginea and Erysiphe cichoracearum; assay: B.7 Protective treatment against Sphaerotheca fuliginea and Erysiphe cichoracearum in cucumber; assay type: in vivo; conditions: Cucumis sativus half-leaf treatment, example 12 diluted 1:100, examples 13/14 1:200, inoculated after 24 h, 18 days after treatment
Procedure: as §1
In a greenhouse, leaves of Cucumis sativus plants var. […] 18 days after the treatment with the active compounds the extent of infection (formation of conidia) was determined visually and the efficacy W was calculated from the infected leave surface according to Abbot's formula. The expected efficacies for active compound combinations (i.e. secondary magnesium and calcium phosphonate) were determined using Colby's formula.

[5] = system: Plasmopara viticola; assay: B.5.1 Protective and curative treatment against Plasmopara viticola in grapevines (half-leaf); assay type: in vivo; conditions: example 12 diluted 1:100, examples 13/14 1:200, 0.05% Silwet L-77, ca. 2 μl/cm2, 6 days after first inoculation
Procedure: as §1, with “vein.” for “vein. For this purpose a precision sprayer was used for applying the active compounds on the one leaf half, while the half which was to stay untreated was covered with a blotting paper during spraying.”
6 days after the first inoculation the plants were placed for 12 h into a humid chamber and then the extent of infection was determined visually and the efficacy W was calculated from the infected leave surface according to the above Abbot's formula.
The expected efficacies for active compound combinations (i.e. secondary magnesium and calcium phosphonate) were determined using Colby's formula (Colby, S. R., “Calculating synergistic and antagonistic responses of herbicide combinations”, Weeds, 15, pp. 20-22, 1967) and compared to the observed efficacies. […]

[6] = system: Plasmopara viticola; assay: B.5.3 Protective treatment against Plasmopara viticola in grapevines; assay type: in vivo; conditions: without first inoculation, washed after 24 h, example 12 diluted 1:100, examples 13/14 1:200, 5 days after inoculation
Procedure: as §1
as §2, with “the first” for “the second”

[7] = system: Erysiphe graminis; assay: B.6 Protective treatment against Erysiphe graminis in wheat; assay type: in vivo; conditions: wheat cultivar Kanzler sprayed to runoff, example 12 diluted 1:100, examples 13/14 1:200, inoculated after 24 h, 18 days after treatment
Procedure: For a treatment according to the invention, the reaction mixture obtained in example 12 was diluted with water in 1:100 v/v ratio, then 0.05% Silwet® L-77 was added. For comparison, the reaction mixtures obtained in examples 13 and 14, respectively, were diluted with water in 1:200 v/v ratio, then 0.05% Silwet® L-77 was added.
B.6 Protective Treatment Against Erysiphe graminis in Wheat
In a greenhouse, wheat plants of the cultivar Kanzler with 2-3 fully developed leaves were sprayed to runoff-point with either a suspension of the product of example 13 containing secondary magnesium phosphonate, or of the product of example 14 containing secondary calcium phosphonate, or of the product of example 12 containing secondary calcium and magnesium phosphonate; in each case diluted and supplemented with a wetting agent as defined in example B.5.1. After 24 h the plants were inoculated with conidia of Erysiphe graminis. 18 days after the treatment with the active compounds the extent of infection (formation of conidia) was determined visually and the efficacy W was calculated from the infected leave surface according to Abbot's formula. The expected efficacies for active compound combinations (i.e. secondary magnesium and calcium phosphonate) were determined using Colby's formula.

| Compound | Infected surface area [1] | leaves infected with powdery mildew [2] | Observed efficacy [3] | Observed efficacy [4] | Observed efficacy [5] | Observed efficacy [6] | Observed efficacy [7] |
| --- | --- | --- | --- | --- | --- | --- | --- |
| C/C=C/C=C/C(=O)O [Sorbic acid, sorbic acid] | 40% |  |  |  |  |  |  |
| potassium phosphonate |  | 100% |  |  |  |  |  |
| secondary calcium phosphonate [Example 14] |  |  | 18.3% | 20.0% | 24.6% | 35.1% | 11.7% |
| secondary magnesium phosphonate [Example 13] |  |  | 47.3% | 43.3% | 16.5% | 44.5% | 36.7% |
